Patent US7589095B2, “4-phenyl-pyrimidine-2-carbonitrile derivatives” (N.V. Organon, priority 2004, dated 2009)

Columns and labels:
[1] = molecular target: T1, recombinant human Cathepsin K (Homo sapiens, UniProt P43235); assay: Cathepsin K activity: inhibition of recombinant human Cathepsin K, fluorogenic substrate Z-Phe-Arg-AMC; type: biochemical; details: pH5.5, fluorescence at 10 minutes, read-out: pIC50 (negative logarithm of the IC50 concentration) for inhibition of human cathepsin K (converted)
T1 sequence (P43235 115-329): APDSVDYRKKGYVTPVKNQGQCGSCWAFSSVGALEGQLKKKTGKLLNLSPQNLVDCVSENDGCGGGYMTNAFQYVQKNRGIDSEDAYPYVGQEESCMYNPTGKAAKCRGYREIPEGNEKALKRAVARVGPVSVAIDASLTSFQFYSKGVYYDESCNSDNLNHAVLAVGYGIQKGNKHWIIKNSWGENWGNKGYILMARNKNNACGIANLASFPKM
Protocol: To a 384 well microtitre plate is added 5 μl of a 100 μM solution of test compound in assay buffer (100 mM sodium acetate pH5.5, 5 mM EDTA, 5 mM dithiothreitol) with 10% dimethylsulfoxide (DMSO), plus 10 μl of 100 μM solution of the substrate Z-Phe-Arg-AMC (Bachem; 7-amido-coumarine derivative of the dipeptide N-benzyloxycarbonyl-Phe-Arg-OH) in assay buffer and 25 μl of assay buffer. 10 μl of a 1 mg/l solution of activated recombinant human cathepsin K, in assay buffer, is then added to the well, yielding a final inhibitor concentration of 10 μM.
Enzyme activity is determined by measuring the fluorescence of the liberated aminomethylcoumarin at […] using […] excitation, at 10 minutes. Percentage enzyme activity is calculated by comparison of this activity to that of a solution containing no inhibitor.

SMILES	IC50 [1] [µM]	melting point [°C]
N#Cc1nc(CCCN2CCN(c3ccccn3)CC2)cc(-c2cccc(C(F)(F)F)c2)n1 [4a′, 4-[3-(4-Pyridin-2-yl-piperazin-1-yl)-propyl]-6-(3-trifluoromethylphenyl)-pyrimidine-2-carbonitrile]	< 0.01	–
CCCc1nc(C#N)nc(-c2cccc(C(F)(F)F)c2)c1C [Example 2, 5-Methyl-4-propyl-6-(3-trifluoromethylphenyl)-pyrimidine-2-carbonitrile]	< 0.1	–
N#Cc1nc(CCCN2CCCCC2)cc(-c2cccc(C(F)(F)F)c2)n1 [Example 4a, 4-(3-Piperidin-1-yl-propyl)-6-(3-trifluoromethylphenyl)-pyrimidine-2-carbonitrile]	< 0.01	–
CN1CCN(CCCc2cc(-c3cccc(C(F)(F)F)c3)nc(C#N)n2)CC1 [Example 4d, 4-[3-(4-Methyl-piperazin-1-yl)-propyl]-6-(3-trifluoromethylphenyl)-pyrimidine-2-carbonitrile]	< 0.01	–
N#Cc1nc(CCCNC2CCCCC2)cc(-c2cccc(C(F)(F)F)c2)n1 [Example 4e, 4-(3-Cyclohexylamino-propyl)-6-(3-trifluoromethylphenyl)-pyrimidine-2-carbonitrile]	< 0.01	–
CC(C)NCCCc1cc(-c2cccc(C(F)(F)F)c2)nc(C#N)n1 [Example 4f, 4-(3-isopropylamino-propyl)-6-(3-trifluoromethylphenyl)-pyrimidine-2-carbonitrile]	< 0.01	–
CN(CCCc1cc(-c2cccc(C(F)(F)F)c2)nc(C#N)n1)Cc1ccccc1 [Example 4g, 4-[3-(Benzyl-methyl-amino)-propyl]-6-(3-trifluoromethylphenyl)-pyrimidine-2-carbonitrile]	< 0.01	–
CC(C)CNCCCc1cc(-c2cccc(C(F)(F)F)c2)nc(C#N)n1 [Example 4h, 4-(3-Isobutylamino-propyl)-6-(3-trifluoromethylphenyl)-pyrimidine-2-carbonitrile]	< 0.1	–
N#Cc1nc(CCCNCc2ccncc2)cc(-c2cccc(C(F)(F)F)c2)n1 [Example 4i, 4-{3-[(Pyridin-4-ylmethyl)-amino]-propyl}-6-(3-trifluoromethylphenyl)-pyrimidine-2-carbonitrile]	< 0.01	–
CCC(CC)NCCCc1cc(-c2cccc(C(F)(F)F)c2)nc(C#N)n1 [Example 4r, 4-[3-(1-Ethyl-propylamino)-propyl]-6-(3-trifluoromethylphenyl)-pyrimidine-2-carbonitrile]	< 0.01	–
CN1CCC(N(C)CCCc2cc(-c3cccc(C(F)(F)F)c3)nc(C#N)n2)CC1 [Example 4s, 4-{3-[Methyl-(1-methyl-piperidin-4-yl)-amino]-propyl}-6-(3-trifluoromethylphenyl)-pyrimidine-2-carbonitrile]	< 0.01	–
CN1CCCN(CCCc2cc(-c3cccc(C(F)(F)F)c3)nc(C#N)n2)CC1 [Example 4u, 4-[3-(4-Methyl-[1,4]diazepan-1-yl)-propyl]-6-(3-trifluoromethylphenyl)-pyrimidine-2-carbonitrile]	< 0.01	–

Second part, the compound after the results:

IC50 [1] [µM]	melting point [°C]	SMILES
–	64	CCCc1cc(-c2cccc(C(C)C)c2)nc(C#N)n1 [Example 5a, 4-(3-Isopropyl-phenyl)-6-propyl-pyrimidine-2-carbonitrile]
–	112	CCCc1cc(-c2cc(C(F)(F)F)cc(C(F)(F)F)c2)nc(C#N)n1 [Example 6a, 4-(3,5-Bis-trifluoromethyl-phenyl)-6-propyl-pyrimidine-2-carbonitrile]
< 0.01	–	CNC(=O)CNCCCc1cc(-c2cccc(C(F)(F)F)c2)nc(C#N)n1 [Example 8a, 4-[3-(Methylcarbamoylmethyl-amino)-propyl]-6-(3-trifluoromethylphenyl)-pyrimidine-2-carbonitrile]
< 0.01	–	CC(=O)NCCNCCCc1cc(-c2ccc(C)c(C)c2)nc(C#N)n1 [Example 14j, 4-[3-(2-Acetylamino-ethylamino)-propyl]-6-(3,4-dimethyl-phenyl)-pyrimidine-2-carbonitrile]
< 0.01	–	Cc1ccc(-c2cc(CCCNCCN3CCNC3=O)nc(C#N)n2)cc1C [Example 14n, 4-(3,4-Dimethyl-phenyl)-6-{3-[2-(2-oxo-imidazolidin-1-yl)-ethylamino]-propyl}-pyrimidine-2-carbonitrile]
